The subject of assay [1] is Avian myeloblastosis virus. Briefly: Inhibition of AMV reverse transcriptase at 200 ug/ml.
Assay [2] has as its target Human immunodeficiency virus type 1 reverse transcriptase (Human immunodeficiency virus 1, UniProt Q72547). Briefly: Inhibition of HIV1 reverse transcriptase.
Assay [3] can be described thus: Inhibition of DNA dependent DNA polymerase.
Assay [4] in a line: Inhibition of RNaseH.
The test system of assay [5] is Human immunodeficiency virus 1. In words: Inhibition of HIV1 reverse transcriptase mutant at 200 ug/ml.
The nature of assay [6]: Inhibition of RNA polymerase at 200 ug/ml.
The nature of assay [7]: Inhibition of DNA dependent DNA polymerase at 200 ug/ml.
The nature of assay [8]: Inhibition of HIV1 reverse transcriptase mutant. Further details: species or system Human immunodeficiency virus 1.
Assay [9] deals with Human immunodeficiency virus type 1 reverse transcriptase (Human immunodeficiency virus 1) (UniProt Q72547). Briefly: Inhibition of HIV1 reverse transcriptase at 200 ug/ml.
The nature of assay [10]: Inhibition of DNA polymerase alpha at 200 ug/ml.
Assay [11] in a line: Inhibition of DNA polymerase alpha.
A short description of assay [12]: Inhibition of RNaseH at 200 ug/ml.
Assay [13] is described as follows: Inhibition of DNA polymerase beta at 200 ug/ml.
Assay [14] is described as follows: Inhibition of RNA polymerase.
Assay [15] in a line: Inhibition of HIV2 reverse transcriptase. Details: species or system Human immunodeficiency virus 2.
Assay [16] can be described thus: Inhibition of DNA polymerase beta.
A short description of assay [17]: Inhibition of AMV reverse transcriptase. Further details: species or system Avian myeloblastosis virus.
In assay [18] the test system is Human immunodeficiency virus 2. In words: Inhibition of HIV2 reverse transcriptase at 200 ug/ml.

A word on the inhibition: it is the drop in the measured response relative to a control, in per cent. Low values mean little suppression, high ones strong suppression. One may read the IC50 as the point on the concentration scale where inhibition reaches its midpoint. Consider `C=C(C)[C@@H]1CC[C@@H]2[C@]3(CC[C@]4(C)[C@@H]([C@H](C)CC/C=C(/C)C(=O)O)CC[C@@]24C)C[C@]13CCC(=O)O` [NIGRANOIC ACID], for which the inhibition amounted to 99.2% in [1]; 71% in assay [5]; 75.4% in assay [6]; 96.7% in assay [7]; 99.4% in [9]; 46.2% in assay [10]. Besides, the inhibition in [12] was 6.8%; in [13], 99.1%; in assay [18], 76.7%. The IC50 in assay [2] is 159 µM; in assay [3], 40.6 µM; in assay [4] it was over 425 µM; in assay [8] it was 388 µM; in [11], over 425 µM; in [14] it was 188 µM. The IC50 stood at 356 µM in [15], 16.6 µM in assay [16] and 242 µM in assay [17].

These data come from ChEMBL document CHEMBL1158221, “Nigranoic acid, a triterpenoid from Schisandra sphaerandra that inhibits HIV-1 reverse transcriptase” (J Nat Prod, 1996).
